In the SangsterLogP compilation:

How the values were obtained:
[1] = method code SF, from PMID: 23342302; settings: pH 7.4
[2] = method code SF-AS, from DOI: 10.1139/y89-042, PMID: 2547502; settings: pH 7.4
[3] = method code SF-RC, from DOI: 10.1021/jm00360a016, PMID: 6854590
[4] = method code SF-HPLC, from DOI: 10.1002/hlca.19880710534; settings: pH 7.4
[5] = method code SF-HPLC, from DOI: 10.1124/dmd.30.12.1497, PMID: 12433825; settings: pH 7.4
[6] = not given; remark: listed apart in the source
[7] = not given; remark: listed apart in the source
[8] = not given; remark: listed apart in the source
[9] = method code SF-AS, from DOI: 10.1016/0006-2952(80)90068-4, PMID: 6775639
[10] = method code SF-AS, from DOI: 10.1016/j.bmc.2011.10.017, PMID: 22094277; settings: pH 7.4
[11] = method code SF-GLC, from DOI: 10.1016/0045-6535(95)00311-u
[12] = not given; remark: listed apart in the source
[13] = pH 4.3
[14] = from Villegas-Navarro, A.; Rodriguez, M. (1984). Structure-activity relationships between quinone moieties and inhibition of sodium transport. In Kuchar, M. (Ed.) QSAR in Design of Bioactive Compounds. …
[15] = method code SF-AS, from DOI: 10.2307/3575639, PMID: 7313077; settings: pH 7.4
[16] = method code SF-AS, from DOI: 10.1021/jf60167a006
[17] = not given; remark: listed apart in the source
[18] = not given; remark: listed apart in the source
[19] = not given; remark: listed apart in the source
[20] = method code SF, from DOI: 10.1248/cpb.42.1525, PMID: 7923475
[21] = method code SF-AS, from DOI: 10.1021/jf60217a021, PMID: 659709
[22] = method code …, from Kristl, A.; Vesnaver, G.; Mrhar, A.; Kozjek, F. (1993). Evaluation of partitioning and solubility data for some guanine derivatives in terms of mutual miscibility of octanol and water phase. …; settings: pH 5.2
[23] = not given; remark: listed apart in the source
[24] = not given; remark: listed apart in the source
[25] = not given; remark: listed apart in the source
[26] = method code SF-HPLC, from DOI: 10.1021/jm00109a018, PMID: 2033591; settings: pH 7.0
[27] = method code SF-AS, from DOI: 10.1080/10826079508009280; settings: pH 7.0
[28] = method code SF-GLC, from DOI: 10.1007/s002679900238, PMID: 10486045
[29] = method code SF, from DOI: 10.1248/cpb.18.708; settings: pH 6.4
[30] = not given; remark: listed apart in the source
[31] = not given; remark: listed apart in the source
[32] = method code SF-AS, from DOI: 10.1021/jf950378u
[33] = method code SF-AS, from Korenman, Y. (1973). Extraction of p-halophenols. Zh. Prikl. Khim., 46(11)2754-2755.; settings: pH 7.4
[34] = method code SF-AS, from DOI: 10.1021/jm00212a022, PMID: 836502
[35] = method code SF, from PMID: 3261785
[36] = method code SF, from DOI: 10.1016/0378-5173(90)90261-2; settings: pH 3.0
[37] = method code SF-AS, from DOI: 10.1021/jf60220a002
[38] = method code SF-AS, from DOI: 10.1211/0022357001773940, PMID: 10757413; settings: pH 7.4
[39] = method code SF-AS, from DOI: 10.1021/jm00128a017, PMID: 2754702; settings: pH 7.4
[40] = method code SF-HPLC, from DOI: 10.1002/jps.22717, PMID: 21837649; settings: pH 7.4
[41] = method code SF-CR, from PMID: 15170; settings: pH 3.0
[42] = method code SF-RC, from DOI: 10.1016/j.nucmedbio.2014.03.023, PMID: 24768149; settings: pH 7.4
[43] = method code SF, from PMID: 7429676; settings: pH 7.4
[44] = method code SF-AS, from PMID: 3774812; settings: pH 4.0
[45] = not given; remark: listed apart in the source
[46] = not given; remark: listed apart in the source
[47] = from Tehrany, E.A.; Desobry, S. (2005). Comparison between the different calculation methods of partition coefficient of aroma compounds with a difference chemical classes in octanol/water system. …
[48] = method code SF-AS, from DOI: 10.1081/jlc-100101494
[49] = method code SF-AS, from DOI: 10.1016/s0090-9556(25)07961-9, PMID: 6130927
[50] = method code SF-AS, from Brown, J.; Yu, N.; Cory, M.; Bicknell, R.; Taylor, D. (1978). In vivo evaluation of the radiosensitizing and cytotoxic properties of newly synthesized electron-affinic drugs. 3, 206-211.

Molecule `Nc1nc(=O)c2ncn(CCC(CO)CF)c2[nH]1` (stereo unspecified) has a logD [1] of -0.87.
In the case of `Nc1ncnc2c1nc(Br)n2[C@@H]1O[C@@H]2COP(=O)(O)O[C@H]2[C@H]1O`, the logD [2] is reported as -2.44.
With `O=c1ccc2ccc3occc3c2o1` the logP [3] was 2.08.
Work on `C=CCC1(C(=O)NC(N)=O)CC(C)OC1=O` (stereo unspecified) yielded a logD [4] of 0.36.
Work on `Cc1[nH]cnc1CSCCNc1cc[nH]c(=O)n1` yielded a logP of -0.4.
`CN1C(=O)CC(c2ccccc2)C1=O` (stereo unspecified) showed a logD [5] of 0.68.
`CN(C)/N=N/c1ccc(CC(=O)O)cc1` showed a logP [6] of 1.38.
Molecule `Cc1cn([C@H]2O[C@@H](CO)[C@H](O)[C@H]2F)c(=O)[nH]c1=O` has a logP [7] of -0.51.
Work on `C=C(C)C(=O)OC1CCCCC1` yielded a logP [8] of 2.98.
In the case of `CC1=CC(=O)c2ccccc2C1=O`, the logP [9] is reported as 1.88.
For `CCCOC(=O)[C@@]1(C)[C@H](CO)CC=[N+]1[O-]`, the logD [10] was -0.82.
Work on `CCCCCCCCC(Cl)C(Cl)(Cl)Cl` (stereo unspecified) yielded a logP [11] of 5.93.
With `CN(C)C(=O)CNCc1ccccc1` the logP [12] was 1.11.
Molecule `Nc1ccc(S(=O)(=O)Nc2ncccn2)cc1` has a logD [13] of -0.04.
With `CC1=CC(=O)C(C(C)C)=CC1=O` the logP [14] was 2.2.
For `CN(C)C(=O)c1cc(N2CC2)c([N+](=O)[O-])cc1[N+](=O)[O-]`, the logD [15] was 0.63.
With `CCOP(=S)(OCC)Oc1ccccc1` the logP [16] was 3.46.
Work on `Cc1noc(NS(=O)(=O)c2ccc(N)cc2)c1C` yielded a logP [17] of 0.83.
In the case of `CCCCc1ccc(C(=O)O)cc1`, the logP [18] is reported as 3.7.
Work on `CCC(Oc1ccc(Cl)cc1C)C(=O)O` (stereo unspecified) yielded a logP [19] of 3.47.
For `CCCC(=O)c1ccccc1`, the logP [20] was 2.66.
In the case of `COC(=O)N(C)SN(C)C(=O)O/N=C(\SC)C(=O)N(C)C`, the logP [21] is reported as -0.07.
`CC(=O)Nc1nc2c(ncn2COCCO)c(=O)[nH]1` showed a logD [22] of -1.3.
`O=C(O)CNC(=O)OCc1ccccc1` showed a logP [23] of 1.47.
Molecule `C1COCCOCCOCCOCCO1` has a logP [24] of -0.48.
Work on `OC[C@@H]1C[C@@H](F)[C@H](n2cnc3c(F)ncnc32)O1` yielded a logP [25] of 0.06.
With `Cc1nc2c(N)ncnc2n1[C@@H]1O[C@H](CO)C[C@@H]1F` the logD [26] was 0.1.
With `Nc1nc(Cl)nc2c1ncn2[C@@H]1O[C@H](CO)[C@@H](O)[C@@H]1F` the logD [27] was 0.5.
For `C=C(C)C1CCC(C)(O)C1C` (stereo unspecified), the logP [28] was 2.87.
Work on `COc1ccc(NS(=O)(=O)c2ccc(N)cc2)nn1` yielded a logD [29] of 0.4.
`COc1ccc(NC(=O)C2CC2)cn1` showed a logP [30] of 1.57.
Work on `CCNc1nc(NC(C)(C)C)nc(SC)n1` yielded a logP [31] of 3.43.
Work on `COC(=O)/C=C/c1ccc(O)c(OC)c1` yielded a logP [32] of 1.2.
In the case of `C=CCC1(CC(=C)Br)C(=O)NC(=O)N(C)C1=O` (stereo unspecified), the logD [33] is reported as 1.78.
`CCCOc1cc(N)ccc1C(=O)O` showed a logP [34] of 1.53.
Molecule `Cc1c(I)c(=O)n(-c2ccccc2)n1C` has a logP [35] of 1.27.
For `O=C(O)CCCc1ccccc1`, the logD [36] was 2.32.
With `CCOP(N)(=O)O/N=C(/C#N)c1ccccc1` (stereo unspecified) the logP [37] was 0.72.
With `Cc1c(O)c(=O)ccn1CCc1c[nH]cn1` the logD [38] was -0.05.
Work on `Nc1nc2c(ncn2C2CC(O)C(CO)O2)c(=O)[nH]1` (stereo unspecified) yielded a logD [39] of -1.3.
In the case of `CCN1CCCc2cc(F)ccc21`, the logD [40] is reported as 2.82.
`CCc1nnc(NS(=O)(=O)c2ccc(N)cc2)s1` showed a logD [41] of 1.01.
`FCCOC1CCC=CCCC1` (stereo unspecified) gave a logD [42] of 1.68.
For `CC(O)Cn1cnc2c1c(=O)n(C)c(=O)n2C` (stereo unspecified), the logD [43] was -0.77.
Work on `Cc1c(CC(=O)O)sc2ccc(Cl)cc12` yielded a logD [44] of 3.12.
Work on `CCC1(CC(C)C)C(=O)NC(=O)NC1=O` yielded a logP [45] of 1.69.
`NC12CC3CC(CC(C3)C1)C2` gave a logP [46] of 2.54.
In the case of `CCCCCCCCCC(=O)O`, the logP [47] is reported as 3.91.
In the case of `CC1(Br)C(=O)NC(=O)N2C3CC(N=[N+]=[N-])C(COC21)O3` (stereo unspecified), the logP [48] is reported as 1.11.
`CCC(N)Cc1ccccc1` (stereo unspecified) showed a logP [49] of 2.28.
With `CC(=O)OCC(Cn1ccnc1[N+](=O)[O-])OC(C)=O` (stereo unspecified) the logP [50] was -0.05.
